Where two headings read alike, the source gives them in different places.
Assays:
[1] = Human Liver Microsomal Stability Test; format: in vitro ADME; settings: human liver microsomes, comparison compounds
Description: The metabolic degradation for a specific SYK-inhibitor is performed at 37° C. with pooled human liver microsomes (human liver microsomes are commercially available as “BD UltraPool™” by Corning Life Sciences, Fogostraat 12, 1060 LJ Amsterdam, The Netherlands). The final incubation volume of 100 μl per time point contains TRIS buffer pH 7.6 at RT (0.1 M), magnesium chloride (5 mM), microsomal protein (1 mg/ml) and the test compound at a final concentration of 1 μM.
Following a short preincubation period at 37° C., the reaction is initiated by addition of beta-nicotinamide adenine dinucleotide phosphate in its reduced form (NADPH, 1 mM) and terminated by transfering an aliquot into solvent after different time points. Additionally, the NADPH-independent degradation is monitored in incubations without NADPH, terminated at the last time point.
The quenched (terminated) incubations are then pelleted by centrifugation (10000 g, 5 min).
An aliquot of the supernatant is assayed by LC-MS/MS for the remaining amount of parent compound. The half-life (t½ INVITRO) is determined by the slope of the semilogarithmic plot of the concentration-time profile.
The intrinsic clearance (CL_[…]) is calculated by considering the amount of protein in the incubation: CL_[…] [μl/min/mg protein]=(Ln 2/(t½INVITRO [min]*protein content [mg/ml]))*1000
The protein content [mg/ml] was determined with the “Bicinchoninic Acid Kit” of Sigma Aldrich (commercially available).
The upscaled intrinsic Clearance (CL_UP_INT) is calcuated by considering the liver weight [g liver/kg body weight] and the microsomal recovery [mg protein/g liver]: CL_UP_INT [ml/min/kg]=0.001*CL_[…]*liver weight*microsomal recovery • with microsomal recovery=45 mg protein/g liver • with liver weight=25.7 g liver/kg body weight
The percent hepatic blood flow (% Qh) is finally calculated by considering the human liver blood flow Q [ml/min/kg]: % Qh [%]=((Q*CL_UP_INT)/(Q+CL_UP_INT)/Q)*100 • with liver blood flow (Q)=20.7 ml/min/kg.

[2] = target: Recombinant human Aurora B (amino acids 1-344) (Homo sapiens (Human), UniProt Q96GD4); test: Aurora B Kinase Test (ADP Glo luminescence); format: biochemical; settings: comparison compounds, read-out: IC50 in μM (AURB-Inhibition)
Description: The activity of the Aurora B kinase protein was determined using the ADP Glo® Luminescence Kinase test (Promega; V9103X).
Serial Dilution is done in 1:10 steps in 100% DMSO.
Then 20 μl Kinase detection mix (Detection Buffer #V913B Promega; Kinase Detection Substrate #V914B Promega) were added and incubated for 40 minutes at room temperature.
(§1) The output file of the reader is a csv file that contains the well number and measured RLU. For data evaluation and calculation, the measurement of the negative control was set as 0% ctrl and the measurement of the positive control was set as 100% ctrl. Based on this values the % value for the measurement of each substance concentration was calculated using an Assay Explorer software (Accelrys). Normally, the % ctrl values calculated are between 0% and 100% values but may also occur outside these limits in individual cases based on variability or compound characteristics. The IC50 values were calculated from the % ctrl values using Assay Explorer software. Calculation: [y=(a−d)/(1+(x/c)^b)+d], a=low value, d=high value; x=conc M; c=IC50 M; b=hill; y=% ctrl.

FLT3 = FLT3 (Homo sapiens (Human), UniProt P36888); test: FLT3 Kinase Test (Z'-LYTE); format: biochemical; settings: comparison compounds, read-out: IC50 in μM (FLT3-Inhibition)
Description: The activity of FLT3 is measured using the Z′-LYTE™ assay technology from Invitrogen (#PV3191)
The reaction is started by addition of 2.5 μl of the 4×ATP solution.
(§2) Positive controls are reaction mixtures containing no test compound; negative controls (blanks) are reaction mixtures containing no kinase. As a further control, the phosphopeptide solution is added to wells without kinase (=100% phosphorylation control).
The reaction is performed for 1 h at room temperature before 5 μl of the development solution is added. After a further incubation for 1 h at room temperature 5 μl of the stop reagent is added.
The output text file is evaluated in an “MS-Excel-VB-Makro” and “GraphPadPrism” (Version 5) (GraphPad Software Inc.) is used to calculate the results. Data for the inhibition of FLT3 are reported in M. data for the inhibition of the protease are reported in % CTL.

Human GSK3beta = Human GSK3beta (Homo sapiens (Human), UniProt P49841); test: GSK 3β Kinase-Test (Z'-LYTE); format: biochemical; settings: comparison compounds, read-out: IC50 in μM (GSK3beta-Inhibition)
Description: Human GSK3beta (expressed and prified from SF21 cells) is obtained from the University Dundee/Scotland (Dr. James Hastie—Dept. of Biochemistry) in 50 mM Tris (pH7.5); 150 mM NaCl; 0.1 mM EGTA, 270 mM Succrose, 0.1% B-mercaptoethanol, 1 mM benzamidine, 0.2 mM PMSF; sequence see below). The enzyme is diluted to 3.56 μM (168 μg/ml) in enzyme dilution buffer and 6 μl aliquots are stored at −80° C.
The activity of GSK3 kinase protein is measured using the Z′-LYTE™ assay technology from Invitrogen (# PV3324).
The assay is performed in 384 black plates from Corning (#3676) in a final volume of 10 μl by adding 5 μl of kinase peptide mix and 2.5 μl of compound dilution. The reaction is started by addition of 2.5 μl of the 4×ATP solution.
as §2, with “ATP.” for “kinase.”, “kinase and without ATP” for “kinase”, “control). The non inhibited kinase reaction will result in a phosphorylation corresponding to 20%-30% of the phosphorylation control.” for “control).”
The reaction is performed 1 h at room temperature. After 1 h 5 μl of the development solution is added. After a further incubation for 1 h at room temperature 5 μl of the stop reagent is added. Finally the plates are read on a Flex Station II 384 (Molecular Devices).
The output text file is evaluated in an “MS-Excel-VB-Makro” and “GraphPadPrism” (Version 5) (GraphPad Software Inc.) is used to calculate the results. Data for the inhibition of GSK3beta are reported in M. data for the inhibition of the protease are reported in % CTL.

[3] = target: Recombinant human Syk (amino acids 342-635) (Homo sapiens (Human), UniProt P43405); test: Syk Kinase Test (Kinase Glo luminescence); format: biochemical; settings: comparison compounds, read-out: IC50 in μM (SYK-Inhibition)
Description: as §1, with “measured relative light units (RLU).” for “measured RLU.”, “as 100%” for “as 0%”, “as 0%” for “as 100%”, “Calculation: [y=(a−d)/(1+(x/c)^b)+d]” for “Calculation: [y=(a−d)/(1+(x/c)^b)+d],”

[4] = Example numbers of WO 2011/092128
[5] = Example numbers of WO 2013/014060

Chain of Recombinant human Aurora B (amino acids 1-344) (Q96GD4 whole entry, the tested form may be a part): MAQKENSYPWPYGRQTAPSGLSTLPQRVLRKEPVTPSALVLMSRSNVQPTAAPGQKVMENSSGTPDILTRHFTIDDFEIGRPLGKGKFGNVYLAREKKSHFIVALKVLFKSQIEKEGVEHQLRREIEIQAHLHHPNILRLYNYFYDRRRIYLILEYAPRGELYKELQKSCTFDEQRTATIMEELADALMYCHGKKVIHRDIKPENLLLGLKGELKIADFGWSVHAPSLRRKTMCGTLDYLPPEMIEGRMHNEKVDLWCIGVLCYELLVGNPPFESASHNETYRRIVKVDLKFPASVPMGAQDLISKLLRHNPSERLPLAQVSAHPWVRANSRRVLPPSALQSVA
Chain of FLT3 (P36888 564-958): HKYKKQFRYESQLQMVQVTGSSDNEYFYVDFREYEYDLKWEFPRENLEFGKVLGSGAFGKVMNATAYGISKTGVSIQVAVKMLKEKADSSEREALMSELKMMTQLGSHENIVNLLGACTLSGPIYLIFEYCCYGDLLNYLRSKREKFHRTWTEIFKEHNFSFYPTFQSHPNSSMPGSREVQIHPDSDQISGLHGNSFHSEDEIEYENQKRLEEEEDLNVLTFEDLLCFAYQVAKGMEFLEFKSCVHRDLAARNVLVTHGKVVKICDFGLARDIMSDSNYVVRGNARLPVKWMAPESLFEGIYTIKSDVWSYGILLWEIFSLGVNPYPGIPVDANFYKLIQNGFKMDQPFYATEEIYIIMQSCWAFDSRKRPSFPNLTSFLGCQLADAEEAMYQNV
Chain of Human GSK3beta (P49841 whole entry): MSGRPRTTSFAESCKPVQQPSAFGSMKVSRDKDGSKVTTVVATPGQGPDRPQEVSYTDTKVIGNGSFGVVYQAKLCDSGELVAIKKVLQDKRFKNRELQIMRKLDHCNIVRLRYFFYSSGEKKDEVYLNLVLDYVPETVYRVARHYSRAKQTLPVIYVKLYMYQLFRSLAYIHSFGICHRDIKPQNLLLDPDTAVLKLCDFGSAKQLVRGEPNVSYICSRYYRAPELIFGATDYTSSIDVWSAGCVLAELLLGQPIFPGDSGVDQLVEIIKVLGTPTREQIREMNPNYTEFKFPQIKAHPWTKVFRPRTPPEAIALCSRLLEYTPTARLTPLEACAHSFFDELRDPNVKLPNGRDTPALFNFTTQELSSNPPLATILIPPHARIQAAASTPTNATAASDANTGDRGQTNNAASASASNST

microsomal stability Cl [% Qh] [1, 4] [% Qh] | IC50 [2, 4] [µM] | IC50 (FLT3; [4]) [µM] | IC50 (Human GSK3beta; [4]) [µM] | IC50 [3, 4] [µM] | microsomal stability Cl [% Qh] [1, 5] [% Qh] | IC50 [2, 5] [µM] | IC50 (FLT3; [5]) [µM] | IC50 (Human GSK3beta; [5]) [µM] | IC50 [3, 5] [µM] | Compound
79 | 2.33 | 0.452 | > 10 | 0.002 |  |  |  |  |  | C[C@@H](Oc1nc(-c2cnn(C3CCCCC3)c2)cc2nn(C)cc12)[C@H]1CNC(=O)C1 [Example 7, (R)-4-((R)-1-(6-(1-cyclohexyl-1H-pyrazol-4-yl)-2-methyl-2H-pyrazolo[4,3-c]pyridin-4-yloxy)ethyl)pyrrolidin-2-one]
 |  |  |  |  | <23 | 0.021 | 0.041 | > 10 | 0.0002 | CC(C)n1cc(-c2cc(O[C@H](C)[C@H]3CNC(=O)C3)c3cccnc3c2)cn1 [compound 115]

— patent US10947243B2, “Heteroaryl SYK inhibitors” (Boehringer Ingelheim International GmbH, priority 2014, dated 2021)
